Source: patent US9840493B2, “Modified amino acids comprising tetrazine functional groups, methods of preparation, and methods of their use” (SUTRO BIOPHARMA, INC., priority 2013, dated 2017)
Converted amounts (≈) assume the structure as drawn. Where two headings read alike, the source gives them in different places.

Legend:
[1] = Solubility in phosphate buffered saline pH 7.4 at room temperature; format: physicochemical; settings: PBS pH 7.4, room temperature; for solubility: phosphate buffered saline, aqueous buffer, thermodynamic from solid
Procedure: This example describes the solubility of three non-natural amino acids comprising tetrazine functional groups in phosphate buffered saline solution, with a pH of 7.4 (PBS). The example also illustrates and discusses the useful increased solubility of the pyridyl tetrazine amino acids provided herein when compared to a phenyl tetrazine-comprising non-natural amino acid of the art.
A suspension of AB 4091 was formed by adding 1.8 mg of AB 4091 to 5 mL of PBS. The suspension was vortexed for five minutes and sonicated for two minutes. Suspended particles remained. Additional PBS was added to the suspension in small portions, with vortexing, to reach a total volume of 25 mL of PBS. This mixture remained cloudy after shaking overnight at room temperature and turned clear following the addition of 2 mL of PBS with vortexing. Clarity of the solution was determined by visual inspection.
(§1) A solution of compound (9) was formed by adding 8.3 mg of compound (9) to 200 μL of PBS to form a homogeneous solution. An additional 11.5 mg of compound (9) was added to this solution, in small portions, over a period of 20 minutes, with vortexing. The solution remained clear after vortexing, with no particulates or cloudiness observed. The maximum solubility of compound (9) was not reached, due to its high solubility and the limited amount of the compound available.
as §1, with “compound (6)” for “compound (9)”, “adding 8.7” for “adding 8.3”, “a homogenous” for “a homogeneous”, “additional 26.9” for “additional 11.5”, “of 25” for “of 20”

[2] = molecular target: T1, tRNA synthetase 2A2 (Methanocaldococcus jannaschii, UniProt Q57834, D158V/F108W/H70A/I159A/L162V/L65V/Q109S/Y32L); test: Cell-free GFP (K49TAG) expression assay: incorporation of non-natural amino acid by tRNA synthetase 2A2; format: biochemical, Methanococcus jannaschii; settings: 4 μM 2A2, compound of formula 9 at 4 mM, 30° C., 12 h, ex 476 nm / em 510 nm
T1 construct: made in house
T1 sequence (Q57834 whole entry Y32L/L65V/H70A/F108W/Q109S/D158V/I159A/L162V): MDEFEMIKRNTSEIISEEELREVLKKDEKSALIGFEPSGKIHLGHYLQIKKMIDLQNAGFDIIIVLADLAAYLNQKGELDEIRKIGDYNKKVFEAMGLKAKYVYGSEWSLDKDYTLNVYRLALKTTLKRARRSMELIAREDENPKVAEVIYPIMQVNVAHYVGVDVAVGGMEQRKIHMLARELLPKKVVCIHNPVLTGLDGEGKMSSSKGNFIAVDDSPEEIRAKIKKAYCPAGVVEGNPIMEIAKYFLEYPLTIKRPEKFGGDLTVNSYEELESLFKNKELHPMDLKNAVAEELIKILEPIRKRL
Procedure: (§2) This example provides two novel tRNA synthetases useful with tetrazine-containing amino acids described herein. These two synthetases, designated “2A2” (SEQ ID NO: 4) and “2A9” (SEQ ID NO: 5) were produced by mutagenesis of wild-type tyrosyl-tRNA synthetase (TyrRS) from Methanococcus jannaschii (SEQ ID NO:3). Mutagenesis was performed by assembling overlapping oligonucleotides encoding the mutations by polymerase chain reaction (PCR). Mutants were screened utilizing the green fluorescent protein expression assay described below.
(§3) The ability of the novel tRNA synthetases to incorporate modified amino acids into a polypeptide was evaluated in cell-free protein synthesis reactions comprising DNA encoding SUPERFOLDER green fluorescent protein (GFP). The codon encoding position 49 of the GFP polypeptide, which normally encodes a lysine residue, was substituted with an amber stop codon (TAG). Full-length GFP is expressed only if the novel tRNA synthetases incorporate s modified amino acid into the polypeptide chain. The level of expression of full-length GFP can be evaluated by measuring fluorescence.
(§4) The GFP DNA containing the TAG stop codon was expressed in cell-free protein synthesis reactions as described in Zawada et al., 2011, Biotechnol. Bioeng. […]

[3] = molecular target: T2, tRNA synthetase 2A9 (Methanocaldococcus jannaschii, UniProt Q57834, D158G/H70A/L162S/L65V/Q109S/Y32G); test: Cell-free GFP (K49TAG) expression assay: incorporation of non-natural amino acid by tRNA synthetase 2A9; format: biochemical, Methanococcus jannaschii; settings: 2-4 μM 2A9, compound of formula 6 at 1 mM, 30° C., 12 h, ex 476 nm / em 510 nm
T2 construct: made in house
T2 sequence (Q57834 whole entry Y32G/L65V/H70A/Q109S/D158G/L162S): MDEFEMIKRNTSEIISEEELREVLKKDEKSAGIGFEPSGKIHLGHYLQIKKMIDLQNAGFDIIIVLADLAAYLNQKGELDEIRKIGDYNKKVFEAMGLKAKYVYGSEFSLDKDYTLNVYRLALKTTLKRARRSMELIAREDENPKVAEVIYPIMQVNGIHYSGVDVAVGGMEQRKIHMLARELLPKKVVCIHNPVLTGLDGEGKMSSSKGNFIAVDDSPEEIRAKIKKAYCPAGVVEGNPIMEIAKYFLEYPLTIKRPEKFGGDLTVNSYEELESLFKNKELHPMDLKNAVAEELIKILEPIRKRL
Procedure: as §2, §3, §4

[4] = solution remained clear, read-out: final concentration achieved (maximum solubility not reached)

Compound: Cc1nnc(Nc2ccc(CC(N)C(=O)O)cc2)nn1 (stereo not shown) [AB 4091, reference compound]
- solubility ([1]; clarity by visual inspection, read-out: solubility): ~0.215 mM (≈ 0.059 mg/mL)

Compound: Cc1nnc(NCc2ccc(C[C@H](N)C(=O)O)nc2)nn1 [compound (9)]
- GFP fluorescence compared with native GFP positive control [2]: approximately equivalent to that of native GFP
- solubility relative to the solubility of AB 4091 [1]: over 1600 fold
- solubility [1, 4]: ≥ 342 mM

Compound: Cc1nnc(Nc2ccc(C[C@H](N)C(=O)O)cn2)nn1 [compound (6)]
- GFP fluorescence compared with native GFP positive control [3]: approaches that of native GFP
- solubility relative to the solubility of AB 4091 [1]: over 3000 fold
- solubility [1, 4]: ≥ 647 mM
